What follows are cell lines tested with COc1cc(Nc2ncc(F)c(Nc3ccc4c(n3)NC(=O)C(C)(C)O4)n2)cc(OC)c1OC [R406] + Cc1nc(NC(=O)N2CCC[C@H]2C(N)=O)sc1-c1ccnc(C(C)(C)C(F)(F)F)c1 [Alpelisib] (partner 2 µM) (assay: relative viability (nuclei count vs DMSO), 5 days (fraction); higher = more cells survive). Settings: first compound 8 µM.
How it was run: (§1)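 Relative viability was taken as the ratio of nuclei in treated wells to nuclei in vehicle wells. Lung cancer cell lines in 1536-well plates received compounds by pin tool one day after seeding, either one drug alone or a fixed anchor-drug dose plus five library-drug doses (not always all listed) in √10 steps. Nuclei were counted on 4× images after 5 days of treatment, and values are medians of duplicate plates.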
Cell Line EPLC-272H has a relative viability of 0.567.
In the case of NCI-H2228, the relative viability is reported as 0.161.
NCI-H1792 showed a relative viability of 0.563.
Cell Line NCI-H1355 has a relative viability of 0.497.
For NCI-H3122, the relative viability was 0.678.
With NCI-H1437 the relative viability was 0.487.
NCI-H1755 gave a relative viability of 0.21.
For NCI-H2023, the relative viability was 0.474.
Work on HCC-15 yielded a relative viability of 0.753.
Cell Line PC-3 [JPC-3] has a relative viability of 0.699.
With EKVX the relative viability was 0.635.
LC-2-ad was tested, and the relative viability was 0.0848.
Work on NCI-H1975 yielded a relative viability of 0.157.
In the case of SK-LU-1, the relative viability is reported as 0.203.
NCI-H1944 was tested, and the relative viability was 0.512.
NCI-H661 was tested, and the relative viability was 0.274.
In the case of RERF-LC-KJ, the relative viability is reported as 0.597.

What follows are cell lines tested with O=C(/C=C/c1cccnc1)NCCCCC1CCN(C(=O)c2ccccc2)CC1 [Daporinad] + C[C@]1(O)C[C@@H](c2nc(-c3ccc4ccc(-c5ccccc5)nc4c3)c3c(N)nccn32)C1 [Linsitinib] (partner 1 µM) in the same assay as above. Settings: first compound 0.0005 µM.
How it was run: as §1
NCI-H2009 showed a relative viability of 1.25.
A-427 showed a relative viability of 0.96.
Cell Line NCI-H460 has a relative viability of 0.759.
In the case of NCI-H727, the relative viability is reported as 0.282.
For NCI-H1734, the relative viability was 0.841.
NCI-H520 showed a relative viability of 0.87.
With NCI-H2347 the relative viability was 1.1.
In the case of SW 1573, the relative viability is reported as 0.889.
For NCI-H1395, the relative viability was 1.01.
201T showed a relative viability of 0.998.
Work on NCI-H1915 yielded a relative viability of 1.13.
Cell Line HCC-827 has a relative viability of 1.
For LXF-289, the relative viability was 0.904.
NCI-H23 was tested, and the relative viability was 0.699.
NCI-H650 gave a relative viability of 0.832.
CAL-12T gave a relative viability of 0.697.
With NCI-H1651 the relative viability was 0.928.
EPLC-272H was tested, and the relative viability was 1.11.
NCI-H2228 showed a relative viability of 0.668.
NCI-H1792 showed a relative viability of 0.392.
In the case of NCI-H1355, the relative viability is reported as 0.798.
NCI-H3122 was tested, and the relative viability was 1.01.
Work on NCI-H1437 yielded a relative viability of 0.969.
For NCI-H1755, the relative viability was 1.02.
NCI-H2023 was tested, and the relative viability was 0.764.
For HCC-15, the relative viability was 0.79.
Work on PC-3 [JPC-3] yielded a relative viability of 0.898.
EKVX showed a relative viability of 1.04.
Cell Line LC-2-ad has a relative viability of 0.688.
NCI-H1975 showed a relative viability of 1.14.
SK-LU-1 showed a relative viability of 1.26.
For NCI-H1944, the relative viability was 1.17.
NCI-H661 gave a relative viability of 0.488.
In the case of RERF-LC-KJ, the relative viability is reported as 0.883.

Same assay, conditions: first compound 0.001581 µM
NCI-H2009 gave a relative viability of 1.21.
Work on A-427 yielded a relative viability of 1.08.
NCI-H460 gave a relative viability of 0.928.
In the case of NCI-H727, the relative viability is reported as 0.337.
With NCI-H1734 the relative viability was 0.962.
NCI-H520 gave a relative viability of 0.445.
NCI-H2347 was tested, and the relative viability was 1.03.
In the case of SW 1573, the relative viability is reported as 0.848.
With NCI-H1395 the relative viability was 1.23.
Cell Line 201T has a relative viability of 0.973.
NCI-H1915 gave a relative viability of 1.17.
HCC-827 showed a relative viability of 0.998.
For LXF-289, the relative viability was 0.972.
For NCI-H23, the relative viability was 0.518.
NCI-H650 was tested, and the relative viability was 1.3.
CAL-12T gave a relative viability of 0.936.
With NCI-H1651 the relative viability was 0.935.
For EPLC-272H, the relative viability was 1.32.
With NCI-H2228 the relative viability was 0.812.
NCI-H1792 gave a relative viability of 0.486.
NCI-H1355 gave a relative viability of 1.02.
For NCI-H3122, the relative viability was 1.01.
NCI-H1437 gave a relative viability of 0.986.
In the case of NCI-H1755, the relative viability is reported as 0.998.
NCI-H2023 showed a relative viability of 0.723.
With HCC-15 the relative viability was 0.943.
PC-3 [JPC-3] was tested, and the relative viability was 0.99.
Work on EKVX yielded a relative viability of 1.09.
With LC-2-ad the relative viability was 0.972.
With NCI-H1975 the relative viability was 0.99.
SK-LU-1 was tested, and the relative viability was 1.13.
In the case of NCI-H1944, the relative viability is reported as 1.26.
NCI-H661 gave a relative viability of 0.555.
In the case of RERF-LC-KJ, the relative viability is reported as 0.893.

Same assay, conditions: first compound 0.005 µM
With NCI-H2009 the relative viability was 1.2.
Work on A-427 yielded a relative viability of 1.1.
For NCI-H460, the relative viability was 0.818.
In the case of NCI-H727, the relative viability is reported as 0.244.
For NCI-H1734, the relative viability was 0.894.
NCI-H520 was tested, and the relative viability was 0.177.
With NCI-H2347 the relative viability was 1.
SW 1573 was tested, and the relative viability was 0.747.
For NCI-H1395, the relative viability was 0.999.
With 201T the relative viability was 1.04.
For NCI-H1915, the relative viability was 1.09.
HCC-827 showed a relative viability of 1.02.
LXF-289 gave a relative viability of 1.
NCI-H23 was tested, and the relative viability was 0.537.
NCI-H650 showed a relative viability of 0.883.
CAL-12T showed a relative viability of 0.778.
NCI-H1651 was tested, and the relative viability was 0.839.
EPLC-272H showed a relative viability of 1.31.
NCI-H2228 was tested, and the relative viability was 0.633.
With NCI-H1792 the relative viability was 0.359.
Cell Line NCI-H1355 has a relative viability of 0.9.
NCI-H3122 showed a relative viability of 1.02.
NCI-H1437 gave a relative viability of 0.976.
With NCI-H1755 the relative viability was 0.977.
NCI-H2023 gave a relative viability of 0.768.
With HCC-15 the relative viability was 0.926.
PC-3 [JPC-3] gave a relative viability of 0.963.
In the case of EKVX, the relative viability is reported as 0.913.
In the case of LC-2-ad, the relative viability is reported as 0.877.
In the case of NCI-H1975, the relative viability is reported as 0.92.
For SK-LU-1, the relative viability was 1.05.
NCI-H1944 showed a relative viability of 1.34.
For NCI-H661, the relative viability was 0.561.
RERF-LC-KJ gave a relative viability of 1.01.

Same assay, conditions: first compound 0.01581 µM
With NCI-H2009 the relative viability was 0.735.
In the case of A-427, the relative viability is reported as 0.881.
Work on NCI-H460 yielded a relative viability of 0.777.
NCI-H727 was tested, and the relative viability was 0.261.
With NCI-H1734 the relative viability was 0.732.
Cell Line NCI-H520 has a relative viability of 0.149.
For NCI-H2347, the relative viability was 0.981.
Cell Line SW 1573 has a relative viability of 0.551.
Work on NCI-H1395 yielded a relative viability of 1.44.
Work on 201T yielded a relative viability of 1.02.
For NCI-H1915, the relative viability was 1.11.
With HCC-827 the relative viability was 0.921.
Cell Line LXF-289 has a relative viability of 1.1.
In the case of NCI-H23, the relative viability is reported as 0.279.
NCI-H650 showed a relative viability of 1.16.
Cell Line CAL-12T has a relative viability of 0.24.
Cell Line NCI-H1651 has a relative viability of 0.838.
In the case of EPLC-272H, the relative viability is reported as 1.4.
In the case of NCI-H2228, the relative viability is reported as 0.951.
In the case of NCI-H1792, the relative viability is reported as 0.686.
With NCI-H1355 the relative viability was 0.876.
NCI-H3122 showed a relative viability of 1.
Work on NCI-H1437 yielded a relative viability of 0.965.
NCI-H1755 was tested, and the relative viability was 0.988.
NCI-H2023 was tested, and the relative viability was 0.686.

Reference: the supplement of paper PMC10307832
